Measured values reported in the NIST ThermoML archive (doi:10.1021/je400243j).
Numbers after ± are expanded uncertainties.

Conditions: 293.15 K, 101.33 kPa, Liquid; for viscosity: Concentric cylinders viscometry; for mass density: Vibrating tube method

Row | viscosity [mPa·s] | mass density [kg/m3] | SMILES
1 | 1000 ± 100 | 1346.9 ± 0.8 | CCCCn1cc[n+](CCCS(=O)(=O)O)c1.O=S(=O)([O-])O [1-butyl-3-(3-sulfopropyl)-imidazolium hydrogensulfate]
2 | 1592 ± 210 | 1361.1 ± 0.8 | CCCCn1cc[n+](CCCCS(=O)(=O)O)c1.O=S(=O)([O-])O [1-butyl-3-(4-sulfobutyl)-imidazolium hydrogensulfate]
3 | 1296 ± 150 | 1501.7 ± 0.9 | C[n+]1ccn(CCCS(=O)(=O)O)c1.O=S(=O)([O-])O [1-methyl-3-(3-sulfopropyl)-imidazolium hydrogensulfate]
4 | 1427 ± 180 | 1464.7 ± 0.8 | C[n+]1ccn(CCCCS(=O)(=O)O)c1.O=S(=O)([O-])O [1-methyl-3-(4-sulfobutyl)-imidazolium hydrogensulfate]
